These are literature values, as cited in patent US20130101569A1, “HAIR GROWTH STIMULANT” (priority 2011, published 2013).

The subject of data set [1] is healthy, older adults with mild memory complaints. Conditions: taken for six months; 485 subjects aged 55 and older.
The conditions of data set [2]: not carbohydrates.

Take `CC/C=C\C/C=C\C/C=C\C/C=C\C/C=C\C/C=C\CCC(=O)O` [algal DHA, 4Z,7Z,10Z,13Z,16Z,19Z)-docosa-4,7,10,13,16,19-hexaenoic acid]: in data set [1], the heart rate result is recorded as “decreased heart rate”; the memory and learning result was “improved memory and learning”.
“Chromium(III) picolinate [chromium picolinate]”: the cravings for fat result in data set [2] was “reduce cravings for fat”.
